Experimental data reported in patent publication US9139615B2, “High-affinity, dimeric inhibitors of PSD-95 as efficient neuroprotectants against ischemic brain damage and for treatment of pain” (University of Copenhagen, priority 2011, dated 2015).
“Also recorded” adds a separate entry of the source. Where no end group is shown, it is not given here.

Legend:
[1] = Human blood plasma stability assay; format: in vitro ADME; conditions: human, plasma; 0.25 mM, 37° C., in vitro; read-out: half-life (T1/2) in human blood plasma
Protocol: Ligands (dimeric PSD-95 inhibitors) for the PDZ domain of PSD-95 were dissolved in human blood plasma (270 μL; 3H Biomedical, Sweden, cat no 1300-1-P50) to a concentration of 0.25 mM (30 μL, of 2.5 mM) and incubated at 37° C. Aliquots (30 μL) were removed at various time intervals (e.g. 0, 5, 10, 20, 40, 80, 160, 320, 960, 1280, 2550, 4560 and 7240 min) and quenched with 60 μL, trichloroacetic acid (aq., 5%). The aliquots were vortexed, and incubated 15 min, at 4° C. prior to centrifugation at 18,000 g for 2 min. The supernatants were analyzed by analytical RP-HPLC (UV218) to quantify compound relative to time zero, and also evaluated qualitatively by ESI-LC/MS in order to identify the compound (m/z) in the sample. Procaine (positive control) and procainamide (negative control) were investigated at 50 μM to validate the procedure. Ligand recoveries following the precipitation procedure were between 85-95%.

[2] = Blood-brain barrier permeability of fluorescent analogues; format: in vivo, mice; conditions: mice, conclusion for unlabeled compounds
Protocol: VI.ii. Blood-brain Barrier Permeability. […] After injection of the compounds, the mice are perfused with paraformaldehyde and the brains are carefully removed, post-fixed in paraformaldehyde, processed into coronal sections, and quantified for fluorescence (Example 8).
The fluorescent ligands were injected intravenously (3 nmol/g) and the location of the ligands was detected by fluorescence microscopy of coronal brain slices (n=8) mice, was evaluated 2 hours after injection. Two sections of the brain, prior to and two after the anterior commissure (n=5), were selected for BBB permeability analysis. The anterior commissure (Bregma: −0.3) was used as a fix point in the brain in order to analyse anatomically identical brain sections. The intensity of the 5-FAM fluorophore was measured semi-quantitatively using a fluorescence microscopy system (Olympus System Microscope model BX-51, Denmark) with a 10× objective (Olympus 10×/0.15 UPlanApo) connected to a high-resolution microscope digital camera (Olympus model DP70), which transferred images to an image-capturing software (Image Pro Plus software). All images were taken using the same microscope settings and with constant camera exposure time. Intensities were quantified using the ImageJ software.
5-FAM-labeled derivative of Tat-NR2B9c is designated MS23. After injection of the compounds, the mice are perfused with paraformaldehyde and the brains are carefully removed, post-fixed in paraformaldehyde, processed into coronal sections, and quantified for fluorescence.
C57BL/6 mice with 6 hour post-surgical survival time were euthanized by cervical dislocation. C57BL/6 mice with 48 hour post-surgical survival were anesthetized with an overdosed of pentobarbital (the pharmacy of the Faculty of Life Sciences, University of Copenhagen, Denmark) in order to collect blood and tissue samples. All brains were carefully removed, frozen in gaseous CO2 and cut into 6 series of 30 μm coronal cryostat sections and stored at −80° C. until further use. C57BL/6J mice used to investigate the blood-brain barrier (BBB) permeability of AB143, AB145, AB148, and MS23 were deeply anesthetized and perfused through the left ventricle, using 10 ml chilled Soerensens phosphate buffer (SB) ([…], 125 mM Na2HPO4, pH 7.4) followed by 20 mL SB containing 4% paraformaldehyde (PFA). The brains were carefully removed and post-fixed in 4% PFA for 1 hour followed by immersion in SB containing 20% sucrose over night. The brains were frozen on gaseous CO2 and processed into 16 μm coronal cryostat sections.

[3] = Physiological status of pMCAO mice (blood values, body weight, temperature, survival); format: in vivo; conditions: pMCAO 48 h experiment, 1 hour after surgery, mean ± SEM
Protocol: The physiological status of the mice was carefully monitored prior to and during pMCAO surgery in order to exclude the observed effects of treatment with dimeric PSD-95 inhibitors being due to secondary conditions (e.g. disease-related) resulting from the experimental procedure.
9.10 Body weight monitoring: The body weight of each mouse was registered during pre-training, before surgery, and at 24 and 48 hours after surgery and no differences were seen between the treatment groups (FIG. 13).
9.11 Temperature monitoring: The rectal temperature of the mouse was continuously measured using a thermocoupled probe connected to a Model Bat 12 unit (Physitemp). The temperature was measured prior to and 30 min after pMCAO in addition to 30 min and 2.5 hours after i.v. injection, i.e. 1 and 3 hours after pMCAO.
9.12 Blood gas analysis: One samples of venous blood was taken for blood gas analysis of PO2/PCO2 electrolytes, glucose, lactate, and hematocrit, 30 min after compound administration (1 hour after pMCAO). A capillary heparin coated tube was inserted along the inner corner of eye and turned until it penetrated the conjunctiva. A sample of blood (150 μl) was collected and stored on ice until gas analysis using the GEM Premier 300 blood gas instrument (Instrumentation Laboratory) Quality controls (QC ContrlIL9) were purchased from IL Sensor Systems. Also, no differences were detected in blood gas parameters (PO2/PCO2, pH, electrolytes, glu/lac), which were similar between the groups and within normal range, when compared to unmanipulated control mice (Table 4).

[4] = system: pMCAO model of ischemic stroke; experiment: Grip strength after pMCAO; format: in vivo, mice; conditions: 48 hours after pMCAO, 3 nmol/g i.v.
Protocol: The grip strength meter (BIO-GT-3, BIOSEB) allows the study of neuromuscular functions in mice by determining the maximum force that is required to make the mouse release its grip. The grip strength in individual paws was used to measure the severity of the pMCAO-induced asymmetry. The mouse is allowed to grasp a metal grid and then pulled backwards in the horizontal plane. The force applied to the grid is recorded as the peak tension. The strength of individual front paws and the total grip strength (both paws simultaneously) were measured before (baseline) and after pMCAO. Each mouse is tested in 5 sequential trials and the highest grip strength is recorded as the best score.

[5] = system: pMCAO model of ischemic stroke; experiment: Rotarod performance test after pMCAO; format: in vivo, mice; conditions: 48 hours after pMCAO; for total time spent on the rod: 3 nmol/g i.v., four trials
Protocol: The rotarod (LE 8200, Panlab) is well suited to evaluate motor activity in rodents, experimental compound effects on central nervous system damage, or disease effects on motor coordination, assessed by the time during which the animal remains walking in a rotating drum. The rotation of the rotarod is motor drived and accelerates from 0 to 40 rounds per min (rpm) over a time period of 5 min, at which time all mice have fallen off the rod. All mice were tested in 4 repeating trials with a 20 min interval (resting time). Prior to surgery mice were pre-trained to stay on the rod for 30 seconds, at 4 rpm.

[6] = system: CFA-induced mechanical allodynia/hyperalgesia; experiment: Complete Freund's adjuvant (CFA) inflammatory pain, von Frey test; format: in vivo, mice; conditions: administered concurrently with CFA, 1 hour and 24 hours after treatment
[7] = Spinal cord detection of fluorescent PSD-95 inhibitors; format: in vivo, mice; conditions: conclusion for unlabeled compounds
Protocol: To investigate if AB143 and AB145 are able to enter spinal cord tissue, they were administered to the mice by intraperitoneal injection (30 mg/kg). The drug-treated mice were decapitated 30 min after injection, and the spinal cord was carefully dissected out, to which 5% trichloroacetic acid (TCA) (300 μL per 0.1 g tissue) was added and the tissue homogenized with an ultrasonic homogenizer (on ice). The homogenated tissue was vortexed and centrifuged for 10 min (20000 g at 4° C.). The supernatant was transferred to a test tube and evaporated, and the residue was reconstituted in water and its fluoresence intensity was determined by using a fluorescence plate reader (excitation/emission:470/525 nm). For quantification of the compounds, a standard curve was prepared by spiking a known amount of AB143 and AB145 into spinal cord tissue from control mice prior to homogenization, followed by work-up and analysis similar to the drug-treated mice.

[8] = system: pMCAO model of cerebral focal ischemia; experiment: pMCAO model of cerebral focal ischemia, infarct volume; format: in vivo, mice; conditions: 3 nmol/g i.v. 30 min after pMCAO

Q: What does the source list for `CC[C@H](C)[C@H](NC(=O)CCOCCOCCN(CCOCCOCCC(=O)N[C@H](C(=O)N[C@@H](CCC(=O)O)C(=O)N[C@H](C(=O)N[C@@H](CC(=O)O)C(=O)N[C@H](C(=O)O)C(C)C)[C@@H](C)O)[C@@H](C)CC)C(=O)[C@H](CCCNC(=N)N)NC(=O)[C@H](CCCNC(=N)N)NC(=O)[C@H](CCCNC(=N)N)NC(=O)[C@H](CCC(N)=O)NC(=O)[C@H](CCCNC(=N)N)NC(=O)[C@H](CCCNC(=N)N)NC(=O)[C@H](CCCCN)NC(=O)[C@H](CCCCN)NC(=O)[C@H](CCCNC(=N)N)NC(=O)CNC(=O)[C@@H](N)Cc1ccc(O)cc1)C(=O)N[C@@H](CCC(=O)O)C(=O)N[C@H](C(=O)N[C@@H](CC(=O)O)C(=O)N[C@H](C(=O)O)C(C)C)[C@@H](C)O` [AB144, Tat-NPEG4(IETDV)2]?
A: half-life at 0.25 mM [1]: 81.7 ± 1.67 h; ability to enter the brain (concluded from fluorescent surrogates) [2]: ability to cross the blood-brain barrier; also recorded: able to enter the brain; blood pH ([3]; 3 nmol/g i.v.): 7.16 ± 0.01; Hct [3]: 43.5 ± 0.9%; [Ca2+] [3]: 1.30 ± 0.02 mmol/L; [K+] [3]: 5.2 ± 0.20 mmol/L; [Lactate] [3]: 0.93 ± 0.07 mmol/L; [Na+] [3]: 148 ± 2.0 mmol/L; pCO2 [3]: 95.7 ± 2.3 mmHg; pO2 [3]: 50.2 ± 2.2 mmHg; grip strength asymmetry between right and left front paw [4]: no asymmetry and not; total grip strength (both paws) compared to baseline [4]: no significant change in total grip strength; also recorded: No difference compared to baseline; total time spent on the rod [5]: 83.5 ± 4.1 s; short term learning skill improvement on rotarod compared to saline ([5]; trials T1-T4): more pronounced short term learning skill improvement; CFA-induced mechanical hyperalgesia [6]: prevented the development of CFA-induced mechanical hyperalgesia; ability to enter spinal cord tissue (concluded from fluorescent surrogates) [7]: able to enter CNS spinal cord tissue at relevant concentrations

Q: Which “reduction of ischemic tissue damage (infarct volume) compared to saline” value ([8]; 6 hour post-surgical survival) does the source give for “YGRKKRRQRRRKLSSIESDV [Tat-NR2B9c, reference compound]” here?
A: Its value is “did not provide a statistically significant reduction; also recorded: not achieved”.

Q: And the “reduction in infarct size compared to saline” value ([8]; 48 hours after pMCAO)?
A: Its value is “no statistically significant infarct reduction”.

Q: And the “grip strength asymmetry between right and left front paw” value [4]?
A: The value was “observed”.

Q: What about the “total grip strength (both paws) compared to baseline” value [4] of the same compound?
A: The value was “lost a significant amount of grip strength; also recorded: significant reduced grip strength”.

Q: What about the “total time spent on the rod” value [5] of the same compound?
A: Its value is 65.7 ± 3.6 s.
